Where two headings read alike, the source gives them in different places.
Tests used:
[1] = tested on: T1, HNL54; test: benzaldehyde formation at […] nm; assay type: biochemical, synthetic construct; conditions: 100 mM citrate pH 5.5, 30 °C
T1 construct: synthetic gene in pET28b (NdeI/XhoI), E. coli BL21(DE3), Ni-Sepharose and gel filtration

[2] = tested on: T2, HNL30; test: benzaldehyde formation at […] nm; assay type: biochemical, synthetic construct; conditions: 100 mM citrate pH 5.5, 30 °C
T2 construct: pET28b (NdeI/XhoI), E. coli BL21(DE3), Ni-Sepharose and gel filtration

Row | Compound | Km ([1]; read-out: Km /) [µM] | Km ([2]; read-out: Km /) [µM] | Km ([1]; read-out: HNL54 / Km) [µM] | Km ([2]; read-out: HNL30 / Km) [µM]
1 | N#CC(O)c1ccccc1 (racemic) [rac-Man] | 3200 ± 300 | 800 ± 100 | – | –
2 | N#C[C@H](O)c1ccccc1 [(R)-Man] | – | – | 370 | 5000
3 | N#C[C@@H](O)c1ccccc1 [(S)-Man] | – | – | 610 | 400
